Data as given in PubChem BioAssay (NCI).
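Tested at 5 concentrations; 48 h exposure; 96-well plates; endpoints linearly interpolated, else capped at highest concentration. The concentration for 50% growth inhibition is given as GI50. TGI: total growth inhibition.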

Legend:
Test in all cases: inhibition of tumour cell growth, NCI panel, 48 h
[1] = system: 786-0 renal
[2] = system: A498 renal
[3] = system: A549 NSCLC
[4] = system: ACHN renal
[5] = system: BT-549 breast
[6] = system: CAKI-1 renal
[7] = system: CCRF-CEM leukemia
[8] = system: COLO 205 colon
[9] = system: DU-145 prostate
[10] = system: EKVX NSCLC
[11] = system: HCC-2998 colon
[12] = system: HCT-116 colon
[13] = system: HCT-15 colon
[14] = system: HL-60(TB) leukemia
[15] = system: HOP-62 NSCLC
[16] = system: HOP-92 NSCLC
[17] = system: HS 578T breast
[18] = system: HT29 colon
[19] = system: IGROV1 ovarian
[20] = system: K-562 leukemia
[21] = system: KM12 colon
[22] = system: LOX IMVI melanoma
[23] = system: M14 melanoma
[24] = system: MALME-3M melanoma
[25] = system: MCF7 breast
[26] = system: MDA-MB-231 breast
[27] = system: MDA-MB-435
[28] = system: MDA-MB-468 breast
[29] = system: MOLT-4 leukemia
[30] = system: NCI-H226 lung
[31] = system: NCI-H23 lung
[32] = system: NCI-H460 lung
[33] = system: NCI-H522 lung
[34] = system: NCI/ADR-RES ovarian
[35] = system: OVCAR-3 ovarian
[36] = system: OVCAR-4 ovarian
[37] = system: OVCAR-5 ovarian
[38] = system: OVCAR-8 ovarian
[39] = system: PC-3 prostate
[40] = system: RPMI-8226 leukemia
[41] = system: RXF 393 renal
[42] = system: SF-268 CNS
[43] = system: SF-295 CNS
[44] = system: SF-539 CNS
[45] = system: SK-MEL-2 melanoma
[46] = system: SK-MEL-28 melanoma
[47] = system: SK-MEL-5 melanoma
[48] = system: SK-OV-3 ovarian
[49] = system: SN12C renal
[50] = system: SNB-19 CNS
[51] = system: SNB-75 CNS
[52] = system: SW-620 colon
[53] = system: T-47D breast
[54] = system: TK-10 renal
[55] = system: U251 CNS
[56] = system: UACC-257 melanoma
[57] = system: UACC-62 melanoma
[58] = system: UO-31 renal

Cc1ccccc1[C@H]1C(C(=O)c2ccc(Cl)cc2)C2(N[C@@H]1c1ccccc1)C(=O)Nc1ccc(Br)cc12 (stereo partly specified)
GI50 [1]: 5.9 µM | TGI [1]: 10.9 µM | GI50 [2]: 6.11 µM | TGI [2]: 11.7 µM | GI50 [3]: 5.44 µM | TGI [3]: 11.8 µM | GI50 [4]: 5.76 µM | TGI [4]: 10.7 µM | GI50 [5]: 5.56 µM | TGI [5]: 10.6 µM | GI50 [6]: 4.11 µM | TGI [6]: 8.63 µM | GI50 [7]: 7.4 µM | TGI [7]: 22.4 µM | GI50 [8]: 5.7 µM | TGI [8]: 11.1 µM | GI50 [9]: 5.46 µM | TGI [9]: 10.6 µM | GI50 [10]: 4.33 µM | TGI [10]: 9.25 µM | GI50 [11]: 5.87 µM | TGI [11]: 10.9 µM | GI50 [12]: 5.26 µM | TGI [12]: 10.2 µM | GI50 [13]: 5.39 µM | TGI [13]: 10.7 µM | GI50 [14]: 9.02 µM | TGI [14]: 28.7 µM | GI50 [15]: 5.91 µM | TGI [15]: 11.6 µM | GI50 [16]: 2.99 µM | TGI [16]: 7.93 µM | GI50 [17]: 5.62 µM | TGI [17]: 18.5 µM | GI50 [18]: 5.52 µM | TGI [18]: 13.2 µM | GI50 [19]: 4.85 µM | TGI [19]: 10.4 µM | GI50 [20]: 8.79 µM | TGI [20]: 36.5 µM | GI50 [21]: 5.63 µM | TGI [21]: 11.6 µM | GI50 [22]: 5.22 µM | TGI [22]: 9.99 µM | GI50 [23]: 5.9 µM | TGI [23]: 11.1 µM | GI50 [24]: 5.35 µM | TGI [24]: 10.3 µM | GI50 [25]: 4.33 µM | TGI [25]: 10.2 µM | GI50 [26]: 5.34 µM | TGI [26]: 10.2 µM | GI50 [27]: 5.61 µM | TGI [27]: 10.6 µM | GI50 [28]: 5.24 µM | TGI [28]: 10.1 µM | GI50 [29]: 6.48 µM | TGI [29]: 23.3 µM | GI50 [30]: 5.39 µM | TGI [30]: 10.6 µM | GI50 [31]: 5.39 µM | TGI [31]: 10.9 µM | GI50 [32]: 6.07 µM | TGI [32]: 12.7 µM | GI50 [33]: 5.86 µM | TGI [33]: 11.5 µM | GI50 [34]: 5.54 µM | TGI [34]: 12.1 µM | GI50 [35]: 3.77 µM | TGI [35]: 8.32 µM | GI50 [36]: 4.72 µM | TGI [36]: 10.5 µM | GI50 [37]: 4.89 µM | TGI [37]: 9.61 µM | GI50 [38]: 6.35 µM | TGI [38]: 15 µM | GI50 [39]: 4.09 µM | TGI [39]: 9.8 µM | GI50 [40]: 7.29 µM | TGI [40]: 23.4 µM | GI50 [41]: 3.67 µM | TGI [41]: 8.34 µM | GI50 [42]: 4.74 µM | TGI [42]: 10.2 µM | GI50 [43]: 4.77 µM | TGI [43]: 9.52 µM | GI50 [44]: 5.99 µM | TGI [44]: 11.2 µM | GI50 [45]: 5.32 µM | TGI [45]: 10.7 µM | GI50 [46]: 5.78 µM | TGI [46]: 10.7 µM | GI50 [47]: 5.83 µM | TGI [47]: 10.8 µM | GI50 [48]: 6.75 µM | TGI [48]: 15.9 µM | GI50 [49]: 4.8 µM | TGI [49]: 9.56 µM | GI50 [50]: 6.08 µM | TGI [50]: 12.1 µM | GI50 [51]: 2.7 µM | TGI [51]: 9.33 µM | GI50 [52]: 5.9 µM | TGI [52]: 11.7 µM | GI50 [53]: 4.09 µM | TGI [53]: 9.42 µM | GI50 [54]: 5.54 µM | TGI [54]: 10.9 µM | GI50 [55]: 5.6 µM | TGI [55]: 12.1 µM | GI50 [56]: 5.77 µM | TGI [56]: 11.5 µM | GI50 [57]: 4.69 µM | TGI [57]: 9.48 µM | GI50 [58]: 4.41 µM | TGI [58]: 8.94 µM
